Experimental data reported in patent publication US20080194522A1, “Development of Fluorogenic Substrates For Monoamine Oxidases (Mao-A and Mao-B)” (priority 2004, published 2008).

Tests used:
[1] = Fluorescence switch / apparent fluorescence increase, product versus substrate; assay type: physicochemical
Method: Apparent fluorescence increase was calculated by comparing the slopes (arbitrary fluorescence units/μM) of standard curves of chemically synthesized product and substrate concentration versus fluorescence intensity. Calculation of the apparent fluorescence increase is shown below for probe 9, which has a 21000% apparent fluorescence increase in emission intensity at λem=524 nm. The constants fP and fS were calculated from the slope of a line of fluorescence intensity versus concentration of chemically synthesized product indole 10 and substrate 9, respectively. These slopes were obtained from calibration curves of at least five concentrations of 9 and 10 in phosphate buffer (pH 7.4). The preparations of the compounds in mitochondrial assay buffer have negligible effects on fS and fP.

[2] = Photophysical characterization (absorbance, extinction coefficient, emission, quantum yield); assay type: physicochemical; conditions: for fluorescence, in words: aqueous / phosphate buffer
Method: Extinction coefficients were the average of three independent determinations of three different readings from the lowest energy transition at three concentrations. Quantum yields are the average of three determinations of both quantum yield standard 9,10-diphenylanthracene and the synthesized coumarines at 340 nm unless otherwise indicated.
All spectra were recorded in 100 mM sodium phosphate (pH 7.4) unless otherwise indicated. Recorded λmax is that of the longest wavelength transition. Extinction coefficients were reported as the average of at least three independent preparations of the probes. Fluorescence measurements were taken on a Jobin Yvon Fluorolog fluorescence spectrofluorometer (slits 3, HV 750) in 100 mM sodium phosphate pH 7.4 buffer unless otherwise indicated. Quantum yields were measured relative to 9,10 diphenylanthracene in EtOH.4 Reported quantum efficiencies are the average of at least three independent preparations of the probes.
The extinction coefficient ε relates the absorbance of a compound to its concentration as expressed in Beer's law (A=εbc where A is absorbance, b is pathlength, and c is concentration). Extinction coefficients were the average of three independent determinations of three different readings of absorbance from the lowest energy transition at three concentrations. The quantum yield of fluorescence is the fraction of absorbed photons that lead to fluorescence; the number of photons fluoresced divided by the number of photons absorbed. To obtain the quantum yields of the synthesized coumarines their efficiency was compared to standard 9,10-diphenylanthracene at 340 nm in three different determinations. The effect of different solvents on the fluorescence of the compounds was also tested. The compounds were dissolved in methanol, chloroform and toluene and their emissions spectrum was taken.

Chemical stability = conditions: in words
[3] = Solubility in aqueous solution; assay type: physicochemical; conditions: in words
MAO-B = biological target: T1, MAO-B (Bos taurus, UniProt P56560); assay: Monoamine oxidase B substrate assay, beef liver mitochondria, fluorescence detection of indole product
T1 sequence (P56560 1-520): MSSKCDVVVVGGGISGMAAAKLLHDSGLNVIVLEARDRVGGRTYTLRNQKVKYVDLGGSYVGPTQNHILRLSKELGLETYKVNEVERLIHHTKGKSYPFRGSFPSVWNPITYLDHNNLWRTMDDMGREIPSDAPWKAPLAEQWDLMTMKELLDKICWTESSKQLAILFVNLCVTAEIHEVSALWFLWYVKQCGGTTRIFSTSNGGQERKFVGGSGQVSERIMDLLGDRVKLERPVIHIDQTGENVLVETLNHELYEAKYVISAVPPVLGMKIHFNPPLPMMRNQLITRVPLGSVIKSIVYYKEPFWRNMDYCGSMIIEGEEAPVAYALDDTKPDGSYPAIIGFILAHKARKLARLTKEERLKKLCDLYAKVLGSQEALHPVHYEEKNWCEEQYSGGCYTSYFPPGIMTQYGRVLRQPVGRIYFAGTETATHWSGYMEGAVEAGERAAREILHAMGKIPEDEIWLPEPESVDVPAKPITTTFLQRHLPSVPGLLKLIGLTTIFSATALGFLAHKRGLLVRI

MAO-A = biological target: T2, MAO-A (Homo sapiens, UniProt P21397); assay: Monoamine oxidase A substrate assay, human placenta mitochondria, fluorescence detection of indole product
T2 sequence (P21397 1-527): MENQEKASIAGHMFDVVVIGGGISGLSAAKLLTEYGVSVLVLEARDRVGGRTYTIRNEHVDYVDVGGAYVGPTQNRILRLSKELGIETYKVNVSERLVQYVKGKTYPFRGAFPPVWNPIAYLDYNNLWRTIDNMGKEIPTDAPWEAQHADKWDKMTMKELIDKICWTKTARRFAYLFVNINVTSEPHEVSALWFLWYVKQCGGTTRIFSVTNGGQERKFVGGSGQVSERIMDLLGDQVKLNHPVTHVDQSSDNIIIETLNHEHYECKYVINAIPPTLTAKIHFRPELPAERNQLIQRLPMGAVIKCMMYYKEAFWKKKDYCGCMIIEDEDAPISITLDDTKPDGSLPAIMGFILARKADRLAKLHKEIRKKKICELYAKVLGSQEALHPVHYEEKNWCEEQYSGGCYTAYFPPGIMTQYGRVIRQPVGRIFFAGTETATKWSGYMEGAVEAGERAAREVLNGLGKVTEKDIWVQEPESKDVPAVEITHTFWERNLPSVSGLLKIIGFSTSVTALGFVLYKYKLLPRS

[4] = 24-hour incubation, room temperature, pH 7.4

## Cc1c(-c2ccc(N)c(CCO)c2)c(=O)oc2c3c4c(cc12)CCCN4CCC3 [Probe 23, 9-[4-Amino-3-(2-hydroxy-ethyl)-phenyl]-8-methyl-2,3,5,6-tetrahydro-1H, 4H-11-oxa-3a-aza-benzo[de]anthracen-10-one]
[1]
  fluorescence emission intensity increase, indole/pyrrolocoumarin versus aniline/aminocoumarin: 6 fold

## O=c1ccc2cc3[nH]ccc3cc2o1 [Probe 59, 1H-Pyrano[2,3-f]indol-6-one]
[2]
  fluorescence, in words: quite fluorescent
[1]
  fluorescence emission intensity increase, indole/pyrrolocoumarin versus aniline/aminocoumarin: around 2000 fold

## CCN(CC)c1ccc2c(C)c(-c3ccc4[nH]ccc4c3)c(=O)oc2c1 [Probe 17, 7-Diethylamino-3-(1H-indol-5-yl)-4-methyl-chromen-2-one]
[2]
  emission wavelength: 475 nm
  fluorescence, in words: highly fluorescent
Chemical stability
  chemical stability: chemically and photo-physically stable
[3]
  solubility in aqueous solution: reasonably soluble
[1]
  fluorescence emission intensity increase, indole/pyrrolocoumarin versus aniline/aminocoumarin: 12 fold

## NCCc1cc2oc(=O)ccc2cc1N [III]
[2]; Table 2, in water, relative to 9,10-diphenyl anthracene (excited at 340 nm)
  Φ: 0.0017
[2]; Table 2 diamines, in water
  ε (M^−1cm^−1): 2,000 ± 100 M^−1cm^−1
  λmax (nm): 352 nm
MAO-B; [4]
  enzyme-catalyzed conversion of diamine to indole: significant conversion
MAO-B; Table 6, Monoamine Oxidase B
  kcx: 20.62 min⁻¹
MAO-B; in words
  substrate quality for MAO-B: good substrate for MAO-B
MAO-A; [4]
  enzyme-catalyzed conversion of diamine to indole: significant conversion
MAO-A; Table 6, Monoamine Oxidase A
  kcx: 0.475 min⁻¹
MAO-A; in words
  substrate quality for MAO-A: good substrate for MAO-A
